Reference: US20230085307A1, “PYRIDAZINONE COMPOUND AND HERBICIDE” (NISSAN CHEMICAL CORPORATION, priority 2019, published 2023)

These molecules were tested on persian speedwell (assay: Test Example 4: herbicidal effect by soil treatment (Table 19, symbol R)). Conditions: amount of applied herbicide 320 g/ha.
Type: in vivo, Persian speedwell (Veronica persica)
How it was run: (§1)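 Herbicidal effect was rated 3 weeks after treatment, using the scoring criteria of an earlier test. The compound, formulated as an emulsion and diluted in water to a set herbicide amount, had been sprayed uniformly on soil over freshly sown seeds. Growth took place in a greenhouse at 25° C. to 30° C.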

SMILES	R: persian speedwell, herbicidal effect grade
CCOc1cc(F)ccc1-c1sc2cc(C)c(C)cc2c1-c1c(O)c(C)nn(C)c1=O [5-103]	4 (Herbicidal rate of 70% or more and less than 90%)
CCOc1ccc2c(-c3c(O)c(C)nn(C)c3=O)c(-c3ccccc3OC)sc2c1Cl [7-003]	5 (Herbicidal rate of 90% or more (almost completely withered))
COCCOc1ccc(-c2oc3ccc(F)cc3c2-c2c(O)c(C)nn(C)c2=O)cc1 [9-045]	4 (Herbicidal rate of 70% or more and less than 90%)

Each molecule was assayed on blackgrass (assay: Test Example 5: herbicidal effect by foliage application, plastic box (Table 20, symbol J)). Conditions: foliage application, 320 g/ha, evaluated 3 weeks after application.
Type: in vivo, blackgrass (Alopecurus myosuroides)
How it was run: (§2)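 Foliar spray test: emulsion formulation diluted in water to a set application rate, sprayed onto 14-day-old plants raised in diluvial soil at 25° C to 30° C under glass. Both herbicidal effect and crop effect rated visually three weeks later.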

SMILES	J (blackgrass) herbicidal effect grade
COCCOc1ccc(-c2oc3ccc(F)cc3c2-c2c(O)c(C)nn(C)c2=O)cc1 [9-045]	5 (Herbicidal rate of 90% or more (almost completely withered))

Same assay, conditions: foliage application, 320 g/ha, three weeks after application

SMILES	herbicidal effect on blackgrass (J)
CCOc1cc(F)ccc1-c1sc2cc(C)c(C)cc2c1-c1c(O)c(C)nn(C)c1=O [5-103]	4 (Herbicidal rate of 70% or more and less than 90%)
CCOc1ccc2c(-c3c(O)c(C)nn(C)c3=O)c(-c3ccccc3OC)sc2c1Cl [7-003]	4 (Herbicidal rate of 70% or more and less than 90%)

Each molecule was assayed on windgrass (assay: Test Example 4: herbicidal effect by soil treatment (Table 19, symbol L)). Conditions: amount of applied herbicide 320 g/ha.
Type: in vivo, windgrass (Apera spica-venti)
How it was run: as §1

SMILES	L: windgrass, herbicidal effect grade
CCOc1cc(F)ccc1-c1sc2cc(C)c(C)cc2c1-c1c(O)c(C)nn(C)c1=O [5-103]	3 (Herbicidal rate of 40% or more and less than 70%)
CCOc1ccc2c(-c3c(O)c(C)nn(C)c3=O)c(-c3ccccc3OC)sc2c1Cl [7-003]	0 (Herbicidal rate of 5% or less (almost no effect))

Each molecule was assayed on Italian ryegrass (assay: Test Example 4: herbicidal effect by soil treatment (Table 19, symbol K)). Conditions: amount of applied herbicide 320 g/ha.
Type: in vivo, Italian ryegrass (Lolium multiflorum)
How it was run: as §1

SMILES	K: Italian ryegrass, herbicidal effect grade
CCOc1cc(F)ccc1-c1sc2cc(C)c(C)cc2c1-c1c(O)c(C)nn(C)c1=O [5-103]	1 (Herbicidal rate of 5% or more and less than 20%)
CCOc1ccc2c(-c3c(O)c(C)nn(C)c3=O)c(-c3ccccc3OC)sc2c1Cl [7-003]	0 (Herbicidal rate of 5% or less (almost no effect))
COCCOc1ccc(-c2oc3ccc(F)cc3c2-c2c(O)c(C)nn(C)c2=O)cc1 [9-045]	5 (Herbicidal rate of 90% or more (almost completely withered))

What follows are molecules tested on velvetleaf (assay: Test Example 5: herbicidal effect by foliage application, plastic box (Table 20, symbol M)). Conditions: foliage application, 320 g/ha, evaluated 3 weeks after application.
Type: in vivo, velvetleaf (Abutilon theophrasti)
How it was run: as §2

SMILES	M (velvetleaf) herbicidal effect grade
COCCOc1ccc(-c2oc3ccc(F)cc3c2-c2c(O)c(C)nn(C)c2=O)cc1 [9-045]	5 (Herbicidal rate of 90% or more (almost completely withered))

Same assay, conditions: foliage application, 320 g/ha, three weeks after application

SMILES	herbicidal effect on velvetleaf (M)
CCOc1cc(F)ccc1-c1sc2cc(C)c(C)cc2c1-c1c(O)c(C)nn(C)c1=O [5-103]	5 (Herbicidal rate of 90% or more (almost completely withered))
CCOc1ccc2c(-c3c(O)c(C)nn(C)c3=O)c(-c3ccccc3OC)sc2c1Cl [7-003]	5 (Herbicidal rate of 90% or more (almost completely withered))

Each molecule was assayed on wild oat (assay: Test Example 4: herbicidal effect by soil treatment (Table 19, symbol I)). Conditions: amount of applied herbicide 320 g/ha.
Type: in vivo, wild oat (Avena fatua)
How it was run: as §1

SMILES	I: wild oat, herbicidal effect grade
CCOc1cc(F)ccc1-c1sc2cc(C)c(C)cc2c1-c1c(O)c(C)nn(C)c1=O [5-103]	0 (Herbicidal rate of 5% or less (almost no effect))
CCOc1ccc2c(-c3c(O)c(C)nn(C)c3=O)c(-c3ccccc3OC)sc2c1Cl [7-003]	0 (Herbicidal rate of 5% or less (almost no effect))
COCCOc1ccc(-c2oc3ccc(F)cc3c2-c2c(O)c(C)nn(C)c2=O)cc1 [9-045]	0 (Herbicidal rate of 5% or less (almost no effect))

What follows are molecules tested on rice flat sedge (assay: Test Example 3: herbicidal effect by foliage application, Wagner pot (Table 18, symbol E)). Conditions: 320 g/ha.
Type: in vivo, rice flat sedge (Cyperus iria)
How it was run: (§3)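 Plants were sown in alluvial soil held under 0.1–0.5 cm standing water and grown 14 days in a greenhouse at 25–30 °C. An emulsifiable formulation, water-diluted to the set dose, was then sprayed onto the foliage, and effects were scored three weeks later using previously defined criteria.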

SMILES	herbicidal effect on rice flat sedge (E)
CCOc1cc(F)ccc1-c1sc2cc(C)c(C)cc2c1-c1c(O)c(C)nn(C)c1=O [5-103]	5 (Herbicidal rate of 90% or more (almost completely withered))

Same assay, conditions: amount of applied herbicide 320 g/ha

SMILES	Herbicidal effect on E (rice flat sedge), foliage application
CCOc1ccc2c(-c3c(O)c(C)nn(C)c3=O)c(-c3ccccc3OC)sc2c1Cl [7-003]	5 (Herbicidal rate of 90% or more (almost completely withered))
COCCOc1ccc(-c2oc3ccc(F)cc3c2-c2c(O)c(C)nn(C)c2=O)cc1 [9-045]	5 (Herbicidal rate of 90% or more (almost completely withered))

These molecules were tested on velvetleaf (assay: Test Example 4: herbicidal effect by soil treatment (Table 19, symbol M)). Conditions: amount of applied herbicide 320 g/ha.
Type: in vivo, velvetleaf (Abutilon theophrasti)
How it was run: as §1

SMILES	M: velvetleaf, herbicidal effect grade
CCOc1cc(F)ccc1-c1sc2cc(C)c(C)cc2c1-c1c(O)c(C)nn(C)c1=O [5-103]	1 (Herbicidal rate of 5% or more and less than 20%)
CCOc1ccc2c(-c3c(O)c(C)nn(C)c3=O)c(-c3ccccc3OC)sc2c1Cl [7-003]	3 (Herbicidal rate of 40% or more and less than 70%)
COCCOc1ccc(-c2oc3ccc(F)cc3c2-c2c(O)c(C)nn(C)c2=O)cc1 [9-045]	5 (Herbicidal rate of 90% or more (almost completely withered))

These molecules were tested on oval-leafed pondweed (assay: Test Example 1: herbicidal activity, application before weed generation under submerged conditions (Table 16, symbol C)). Conditions: amount of applied herbicide 320 g/ha.
Type: in vivo, oval-leafed pondweed (Monochoria vaginalis)
How it was run: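 Submerged Wagner pots (alluvial soil, 4 cm water) sown with weed seeds and planted with 2.5-leaf rice seedlings; emulsifiable concentrate diluted in water applied to water surface on sowing day. Held in greenhouse at 25-30 °C; injury scored 0-5 by herbicidal rate after three weeks.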

SMILES	Herbicidal effect, C: oval-leafed pondweed
CCOc1cc(F)ccc1-c1sc2cc(C)c(C)cc2c1-c1c(O)c(C)nn(C)c1=O [5-103]	4 (Herbicidal rate of 70% or more and less than 90%)
CCOc1ccc2c(-c3c(O)c(C)nn(C)c3=O)c(-c3ccccc3OC)sc2c1Cl [7-003]	0 (Herbicidal rate of 5% or less (almost no effect))
COCCOc1ccc(-c2oc3ccc(F)cc3c2-c2c(O)c(C)nn(C)c2=O)cc1 [9-045]	5 (Herbicidal rate of 90% or more (almost completely withered))

The molecules below were run on Italian ryegrass (assay: Test Example 5: herbicidal effect by foliage application, plastic box (Table 20, symbol K)). Conditions: foliage application, 320 g/ha, evaluated 3 weeks after application.
Type: in vivo, Italian ryegrass (Lolium multiflorum)
How it was run: as §2

SMILES	K (Italian ryegrass) herbicidal effect grade
COCCOc1ccc(-c2oc3ccc(F)cc3c2-c2c(O)c(C)nn(C)c2=O)cc1 [9-045]	5 (Herbicidal rate of 90% or more (almost completely withered))

Same assay, conditions: foliage application, 320 g/ha, three weeks after application

SMILES	herbicidal effect on Italian ryegrass (K)
CCOc1cc(F)ccc1-c1sc2cc(C)c(C)cc2c1-c1c(O)c(C)nn(C)c1=O [5-103]	4 (Herbicidal rate of 70% or more and less than 90%)
CCOc1ccc2c(-c3c(O)c(C)nn(C)c3=O)c(-c3ccccc3OC)sc2c1Cl [7-003]	4 (Herbicidal rate of 70% or more and less than 90%)

Each molecule was assayed on chickweed (assay: Test Example 5: herbicidal effect by foliage application, plastic box (Table 20, symbol P)). Conditions: foliage application, 320 g/ha, evaluated 3 weeks after application.
Type: in vivo, common chickweed (Stellaria media)
How it was run: as §2

SMILES	P (chickweed) herbicidal effect grade
COCCOc1ccc(-c2oc3ccc(F)cc3c2-c2c(O)c(C)nn(C)c2=O)cc1 [9-045]	5 (Herbicidal rate of 90% or more (almost completely withered))

These molecules were tested on green foxtail (assay: Test Example 4: herbicidal effect by soil treatment (Table 19, symbol G)). Conditions: amount of applied herbicide 320 g/ha.
Type: in vivo, green foxtail (Setaria viridis)
How it was run: as §1

SMILES	G: green foxtail, herbicidal effect grade
CCOc1cc(F)ccc1-c1sc2cc(C)c(C)cc2c1-c1c(O)c(C)nn(C)c1=O [5-103]	3 (Herbicidal rate of 40% or more and less than 70%)
CCOc1ccc2c(-c3c(O)c(C)nn(C)c3=O)c(-c3ccccc3OC)sc2c1Cl [7-003]	0 (Herbicidal rate of 5% or less (almost no effect))
COCCOc1ccc(-c2oc3ccc(F)cc3c2-c2c(O)c(C)nn(C)c2=O)cc1 [9-045]	5 (Herbicidal rate of 90% or more (almost completely withered))

What follows are molecules tested on Japanese bulrush (assay: Test Example 2: herbicidal activity, application during weed generation under submerged conditions (Table 17, symbol B)). Conditions: AAH 320 g/ha; application during weed generation, submerged conditions.
Type: in vivo, Japanese bulrush (Schoenoplectus juncoides)
How it was run: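 Herbicide emulsion, diluted with water to the chosen amount, is applied onto 4 cm floodwater over alluvial soil where the weeds were co-sown and raised at 25–30° C. Application timing: 1–2 leaves. Assessment: three weeks afterwards.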

SMILES	herbicidal effect rating, B: Japanese bulrush
CCOc1cc(F)ccc1-c1sc2cc(C)c(C)cc2c1-c1c(O)c(C)nn(C)c1=O [5-103]	3 (Herbicidal rate of 40% or more and less than 70%)
CCOc1ccc2c(-c3c(O)c(C)nn(C)c3=O)c(-c3ccccc3OC)sc2c1Cl [7-003]	3 (Herbicidal rate of 40% or more and less than 70%)
COCCOc1ccc(-c2oc3ccc(F)cc3c2-c2c(O)c(C)nn(C)c2=O)cc1 [9-045]	3 (Herbicidal rate of 40% or more and less than 70%)

Each molecule was assayed on redroot pigweed (assay: Test Example 4: herbicidal effect by soil treatment (Table 19, symbol N)). Conditions: amount of applied herbicide 320 g/ha.
Type: in vivo, redroot pigweed (Amaranthus retroflexus)
How it was run: as §1

SMILES	N: redroot pigweed, herbicidal effect grade
CCOc1cc(F)ccc1-c1sc2cc(C)c(C)cc2c1-c1c(O)c(C)nn(C)c1=O [5-103]	2 (Herbicidal rate of 20% or more and less than 40%)
CCOc1ccc2c(-c3c(O)c(C)nn(C)c3=O)c(-c3ccccc3OC)sc2c1Cl [7-003]	5 (Herbicidal rate of 90% or more (almost completely withered))
COCCOc1ccc(-c2oc3ccc(F)cc3c2-c2c(O)c(C)nn(C)c2=O)cc1 [9-045]	5 (Herbicidal rate of 90% or more (almost completely withered))

These molecules were tested on barnyard grass (assay: Test Example 5: herbicidal effect by foliage application, plastic box (Table 20, symbol H)). Conditions: foliage application, 320 g/ha, evaluated 3 weeks after application.
Type: in vivo, barnyard grass (Echinochloa crus-galli)
How it was run: as §2

SMILES	H (barnyard grass) herbicidal effect grade
COCCOc1ccc(-c2oc3ccc(F)cc3c2-c2c(O)c(C)nn(C)c2=O)cc1 [9-045]	5 (Herbicidal rate of 90% or more (almost completely withered))

Same assay, conditions: foliage application, 320 g/ha, three weeks after application

SMILES	herbicidal effect on barnyard grass (H)
CCOc1cc(F)ccc1-c1sc2cc(C)c(C)cc2c1-c1c(O)c(C)nn(C)c1=O [5-103]	5 (Herbicidal rate of 90% or more (almost completely withered))
CCOc1ccc2c(-c3c(O)c(C)nn(C)c3=O)c(-c3ccccc3OC)sc2c1Cl [7-003]	2 (Herbicidal rate of 20% or more and less than 40%)

The molecules below were run on lambsquarters (assay: Test Example 4: herbicidal effect by soil treatment (Table 19, symbol O)). Conditions: amount of applied herbicide 320 g/ha.
Type: in vivo, lambsquarters (Chenopodium album)
How it was run: as §1

SMILES	O: lambsquarters, herbicidal effect grade
CCOc1cc(F)ccc1-c1sc2cc(C)c(C)cc2c1-c1c(O)c(C)nn(C)c1=O [5-103]	2 (Herbicidal rate of 20% or more and less than 40%)
CCOc1ccc2c(-c3c(O)c(C)nn(C)c3=O)c(-c3ccccc3OC)sc2c1Cl [7-003]	4 (Herbicidal rate of 70% or more and less than 90%)
COCCOc1ccc(-c2oc3ccc(F)cc3c2-c2c(O)c(C)nn(C)c2=O)cc1 [9-045]	5 (Herbicidal rate of 90% or more (almost completely withered))

Each molecule was assayed on Chinese sprangletop (assay: Test Example 3: herbicidal effect by foliage application, Wagner pot (Table 18, symbol D)). Conditions: 320 g/ha.
Type: in vivo, chinese sprangletop (Leptochloa chinensis)
How it was run: as §3

SMILES	herbicidal effect on Chinese sprangletop (D)
CCOc1cc(F)ccc1-c1sc2cc(C)c(C)cc2c1-c1c(O)c(C)nn(C)c1=O [5-103]	4 (Herbicidal rate of 70% or more and less than 90%)

Same assay, conditions: amount of applied herbicide 320 g/ha

SMILES	Herbicidal effect on D (Chinese sprangletop), foliage application
CCOc1ccc2c(-c3c(O)c(C)nn(C)c3=O)c(-c3ccccc3OC)sc2c1Cl [7-003]	3 (Herbicidal rate of 40% or more and less than 70%)
COCCOc1ccc(-c2oc3ccc(F)cc3c2-c2c(O)c(C)nn(C)c2=O)cc1 [9-045]	3 (Herbicidal rate of 40% or more and less than 70%)
